# Key:
# [1] = tested on: Mel-SOE; experiment: Sulforhodamine B (SRB) assay; type: cell-based; details: Mel-SOE melanoma cells, 48 h
# Procedure: (§1) The human MDA-MB-231, MCF7, MDA-MB-468, RPMI-8226 and HeLa cell lines were purchased from ATCC and maintained in Dulbecco's Modified Eagle Medium (DMEM)—high glucose supplemented with 10% fetal bovine serum (FBS) and antibiotics/antimycotics. Cell line authentication was carried out by Genetica DNA Laboratories (Burlington, NC) using a short tandem repeat (STR) profiling method (March 2015; July 2015; September 2016). Melanoma cells E-055 (MZ-Mel-3), E-097 (Mel-SOE), E-112 (UKRV-Mel-38), E-157 (UKRV-Mel-17) were obtained from the European Searchable Tumour Line Database (ESTDAB) cell bank (a kind gift of Dr. Graham Pawelec, Tubingen University, Germany). MDA-MB-435 was purchased from the Division of Cancer Treatment and Diagnosis Tumor Repository. All melanoma cells were cultured in Roswell Park Memorial Institute (RPMI) medium supplemented with 10% FBS and P/S/antimycotics. Primary human epidermal melanocytes from normal adult abdominal skin were purchased from ATCC (cat # PCS-200–013) and Cell Applications (cat#104-05a). The melanocytes were cultured in the media supplied by the companies.
# (§2) The SRB assay was used to assess drug-induced cytotoxicity and cell proliferation as previously described[2],[33],[34] with a few modifications. Briefly, cells were plated 10,000 to 25,000 cells/cm^2 in 96-well plates (100 µl medium) and allowed to adhere overnight. The cell counts were different for each cell line to ensure optimal cell growth for the duration of the assay. Eight different concentrations of compound solutions using 2–4 times serial dilutions (100 µl). Cells were then incubated for an additional 48 h and then fixed with 100 µl ice-cold 10% (w/v) trichloroacetic acid (TCA) (without removing the cell medium, final concentration, 3.3% of TCA) and stained with 0.4% SRB (w/v) in 1% acetic acid (v/v). The relative growth rate (%) was calculated for each of the compound concentrations according to the following formula: 100 * (T − T0)/(C − T0), in which T is the optical density (OD) after exposure to a certain concentration of the compound after 48 h, T0 is the OD at the start of drug exposure (time zero) and C is the control growth. The GI50 for each compound was obtained from a non-linear sigmoidal dose–response (variable slope) curve fitted by GraphPad Prism v.4.03 software.
# [2] = tested on: MDA-MB231; experiment: Sulforhodamine B (SRB) assay; type: cell-based; details: Homo sapiens, MDA-MB-231; MDA-MB231 breast cancer cells, 48 h, SRB
# Procedure: as §1, §2
# [3] = tested on: UKRV-Mel-17; experiment: Sulforhodamine B (SRB) assay; type: cell-based; details: UKRV-Mel-17 melanoma cells, 48 h
# Procedure: as §1, §2
# [4] = tested on: MDA-MB468; experiment: Sulforhodamine B (SRB) assay; type: cell-based; details: Homo sapiens, MDA-MB-468, MDA-MB468 breast cancer cells, 48 h
# Procedure: as §1, §2
# [5] = tested on: MZ-Mel-3; experiment: Sulforhodamine B (SRB) assay; type: cell-based; details: MZ-Mel-3 melanoma cells, 48 h
# Procedure: as §1, §2
# [6] = tested on: MCF7; experiment: Sulforhodamine B (SRB) assay; type: cell-based; details: Homo sapiens; MCF7 breast cancer cells, 48 h, SRB
# Procedure: as §1, §2
# [7] = tested on: HeLa; experiment: Sulforhodamine B (SRB) assay; type: cell-based; details: Homo sapiens; HeLa cervical cancer cells, 48 h, SRB
# Procedure: as §1, §2
# [8] = tested on: UKRV-Mel-38; experiment: Sulforhodamine B (SRB) assay; type: cell-based; details: UKRV-Mel-38 melanoma cells, 48 h
# Procedure: as §1, §2
# [9] = tested on: MDA-MB435; experiment: Sulforhodamine B (SRB) assay; type: cell-based; details: Homo sapiens, MDA-MB-435, MDA-MB435 cells, 48 h
# Procedure: as §1, §2
# [10] = tested on: MDA-MB231-TaxR; experiment: Sulforhodamine B (SRB) assay; type: cell-based; details: Homo sapiens, MDA-MB231-TaxR paclitaxel-resistant breast cancer cells, 48 h
# Excerpt: We had initially determined that quinolone chalcones were promising anti-proliferative through a first round screening and identified CTR-17 and CTR-20 as favorable structures for anticancer activity. […] We carried out a comparative SAR study to determine if we could further optimize the quinolone chalcone to maximize efficacy. The Sulforhodamine B (SRB) assay was used to measure the anti-proliferative/cell killing activities of CTRs, for which several different cell lines were use: the cervical cancer HeLa, the breast cancer cell lines MDA-MB231, MDA-MB468, MDA-MB231TaxR (an induced paclitaxel-resistant sub-cell line of the MDA-MB231[9]) and MCF7. In addition, a subset was tested against the melanoma cell lines MZ-MEL-3.1, Mel-SOE, UKRV-Mel-38, UKRV-Mel-17 and MDA-MB-435 (Table 1, Supplemental Table S1).
# as §2
# [11] = tested on: cancer cell lines (breast cancer, melanoma, cervical cancer); experiment: SRB assay, average GI50 over cancer cell lines; type: cell-based
# Procedure: as §2
# [12] = tested on: HeLa cells; experiment: Cell cycle analysis by flow cytometry; type: cell-based, human; details: 3× GI50, 12 or 24 h, HeLa and UKRV-Mel-38 (Supplemental Fig. S11)
# Procedure: Figure 5 CTR-21 arrests cells at G2/M, eventually leading to cell death by apoptosis. (a) Effects of CTR-21 on the cell cycle progression of HeLa and E112 cells. […] (b) Cell morphology of CTR-21 arrested cells. HeLa cells were treated with 30 nM of CTR-21 for 12 h, fixed with methanol and immunostained with α-tubulin or γ-tubulin, and counterstained with DAPI. Bar = […]. (c) CTR-21 promotes PARP cleavage. […] GAPDH was used as a loading control.
# Cell cycle progression was determined using flow cytometry. UKRV-Mel-38 and HeLa cells were plated onto 10 cm plate at a density of 0.5 million and treated them with or without the compounds the following day for 12, 24 or 48 h. Cells were then harvested and centrifuged at 1000 rpm for 5 min, washed in PBS and then fixed with ice-cold ethanol (70%) for at least 24 h at − 20 °C. The cells were centrifuged, re-suspended in PBS solution, followed by centrifugation. The cell pellet was then stained with 100 μg/mL propidium iodide (PI) and 100 μg/mL RNase A in distilled water for at least 1 h. DNA content was measured using a Beckmann Coulter Cytomics FC500 (Beckman Coulter, Fullerton, CA), and the proportion of cell populations in G0/G1, S, and G2/M phases of cell cycle was calculated on the basis of DNA distribution histograms using CXP software (Beckman Coulter, Fullerton, CA).
# [13] = biological target: T1, porcine tubulin (Sus scrofa, UniProt P02550+P02554); experiment: In vitro tubulin polymerization assay; type: biochemical; details: 3 µM compound, 20 µM porcine tubulin, 37 °C, 60 min
# T1 construct: purchased Cytoskeleton Inc., Denver, CO BK011P
# T1 sequence (P02554 whole entry): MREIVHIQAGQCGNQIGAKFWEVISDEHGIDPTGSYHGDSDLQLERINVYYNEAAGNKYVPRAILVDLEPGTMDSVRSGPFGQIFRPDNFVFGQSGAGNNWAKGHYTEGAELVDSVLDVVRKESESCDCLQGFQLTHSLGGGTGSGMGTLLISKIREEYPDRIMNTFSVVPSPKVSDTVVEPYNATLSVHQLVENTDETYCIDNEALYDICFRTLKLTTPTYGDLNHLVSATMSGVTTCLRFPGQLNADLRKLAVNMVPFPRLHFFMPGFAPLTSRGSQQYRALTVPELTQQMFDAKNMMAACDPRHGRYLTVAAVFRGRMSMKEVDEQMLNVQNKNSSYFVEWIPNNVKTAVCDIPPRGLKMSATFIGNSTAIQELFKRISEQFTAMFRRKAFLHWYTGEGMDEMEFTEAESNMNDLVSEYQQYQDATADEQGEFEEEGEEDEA
# T1 sequence (P02550 whole entry): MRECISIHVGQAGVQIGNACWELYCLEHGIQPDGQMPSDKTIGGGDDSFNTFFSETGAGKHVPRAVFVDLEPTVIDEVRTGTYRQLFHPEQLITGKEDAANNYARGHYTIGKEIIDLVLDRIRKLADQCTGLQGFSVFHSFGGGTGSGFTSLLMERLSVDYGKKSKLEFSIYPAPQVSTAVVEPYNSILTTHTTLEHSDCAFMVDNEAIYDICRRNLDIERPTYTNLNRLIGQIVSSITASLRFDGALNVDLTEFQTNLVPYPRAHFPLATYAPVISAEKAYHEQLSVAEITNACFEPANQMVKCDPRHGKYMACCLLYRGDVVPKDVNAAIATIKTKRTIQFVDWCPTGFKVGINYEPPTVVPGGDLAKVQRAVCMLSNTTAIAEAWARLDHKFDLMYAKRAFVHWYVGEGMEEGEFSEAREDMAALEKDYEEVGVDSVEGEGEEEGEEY
# Procedure: Spontaneous polymerization of 20 µM porcine tubulin was initiated with the addition of 1 mmol/L GTP at 37 °C and monitored every minute for 60 min in the presence of the indicated concentration of CTR-21, CTR-32, nocodazole, paclitaxel, or a DMSO vehicle control. To make the graph simpler, only 3 µM concentration is shown. […] A modified Dixon plot was used to determine the inhibitory concentration of CTR-21 and CTR-32 (Ki).
# Microtubule assembly was assessed using a Tubulin Polymerization assay kit (BK011P; Cytoskeleton Inc., Denver, CO). […] Polymerization was started by incubating at 37 °C and followed by absorbance readings every 1 min at 340 nm for 1 h using a Synergy H4 plate reader.
smiles,measurement,setting,value
"COc1ccc2cc(/C=C/C(=O)c3ccccc3OC)c(=O)[nH]c2c1 [CTR-19, (E)-7-Methoxy-3-(3-(2-methoxyphenyl)-3-oxoprop-1-enyl) quinolin-2(1H)-one]",GI50,[1],10.1 µM
same,GI50,[2],6.51 ± 1.39 µM
same,GI50,[3],11.2 µM
same,GI50,[4],3.54 ± 0.06 µM
same,GI50,[5],6.83 ± 0.957 µM
same,GI50,[6],11.9 µM
same,GI50,[7],6.82 ± 1.39 µM
same,GI50,[8],3.77 ± 0.206 µM
same,GI50,[9],4.72 ± 2.76 µM
same,GI50,[10],7.09 ± 1.06 µM
same,potency compared to CTR-17,[11],lower toxicity potency
same,GI50,"[11]; average over the cell lines of Table 1 or Supplemental Table S1, read-out: average GI50",7.3 µM
same,cell cycle effect,[12],"arrests cells in G2/M, albeit at a much higher concentration"
"COC(=O)Nc1nc2ccc(C(=O)c3cccs3)cc2[nH]1 [Noco, Nocodazole, reference compound]",GI50,[1],0.051 ± 0.011 µM
same,GI50,[2],0.035 ± 0.004 µM
same,GI50,[3],0.039 ± 0.001 µM
same,GI50,[4],0.048 ± 0.007 µM
same,GI50,[5],0.023 ± 0.002 µM
same,GI50,[6],0.033 ± 0.007 µM
same,GI50,[7],0.025 ± 0.001 µM
same,GI50,[8],0.034 ± 0.003 µM
same,GI50,[9],0.018 ± 0.002 µM
same,effect on tubulin polymerization,[13],reduced steady-state
same,GI50,[10],0.047 ± 0.011 µM

# — article PMC8566451, “Lead optimization of novel quinolone chalcone compounds by a structure–activity relationship (SAR) study to increase efficacy and metabolic stability” (Scientific Reports, 2021)
